From patent US7723358B2, “Aroyl-O-piperidine derivatives for the treatment of diabetes-related problems” (Merck Patent GmbH, priority 2004, dated 2010) come the findings set out here.

The target of experiment [1] is T1, microsomal triglyceride transfer protein (MTP) (Mesocricetus auratus, UniProt P55158).
T1 construct: The supernatant comprising the soluble MTP is dialysed against Tris/HCl 150 mM; from tissue; host or cells: golden hamster liver microsomes, deoxycholate-solubilised supernatant, dialysed
T1 sequence (P55158 19-895): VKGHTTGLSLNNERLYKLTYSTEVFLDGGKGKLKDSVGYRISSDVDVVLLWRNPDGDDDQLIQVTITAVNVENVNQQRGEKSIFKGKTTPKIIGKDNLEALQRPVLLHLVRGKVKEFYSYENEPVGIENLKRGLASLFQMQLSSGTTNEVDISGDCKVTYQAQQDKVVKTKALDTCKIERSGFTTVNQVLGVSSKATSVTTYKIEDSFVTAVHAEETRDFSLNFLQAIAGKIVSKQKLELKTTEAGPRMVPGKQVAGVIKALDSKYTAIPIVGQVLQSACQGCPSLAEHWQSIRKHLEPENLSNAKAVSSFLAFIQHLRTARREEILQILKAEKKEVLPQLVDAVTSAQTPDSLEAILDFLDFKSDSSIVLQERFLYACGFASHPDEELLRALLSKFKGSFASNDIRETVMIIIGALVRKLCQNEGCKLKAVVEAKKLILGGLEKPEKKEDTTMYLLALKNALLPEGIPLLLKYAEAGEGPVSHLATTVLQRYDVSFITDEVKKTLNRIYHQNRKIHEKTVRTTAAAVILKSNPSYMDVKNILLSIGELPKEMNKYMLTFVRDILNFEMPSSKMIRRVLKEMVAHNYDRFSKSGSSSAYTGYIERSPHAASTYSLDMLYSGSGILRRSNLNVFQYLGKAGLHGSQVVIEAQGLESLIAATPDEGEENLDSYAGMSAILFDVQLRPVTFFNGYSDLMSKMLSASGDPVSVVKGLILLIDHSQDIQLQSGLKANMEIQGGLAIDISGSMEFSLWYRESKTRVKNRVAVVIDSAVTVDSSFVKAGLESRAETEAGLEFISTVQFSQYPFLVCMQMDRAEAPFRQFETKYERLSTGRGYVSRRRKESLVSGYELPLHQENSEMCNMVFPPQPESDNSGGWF
As to the kind of experiment: Inhibition of MTP activity: transfer of [3H]-triolein from donor liposomes to biotinylated LDL, SPA. To be noted: MTP from golden hamster liver; incubation 18-24 hours at 37° C.; read-out: IC50, concentration that allows a 50% inhibition of MTP. It is filed as biochemical. The method, boiled down: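 Soluble MTP was extracted with deoxycholate from golden hamster liver microsomes. It was incubated with [3H]-triolein/phosphatidylcholine donor liposomes, biotinylated LDL acceptors and compound in DMSO in HEPES/NaCl/BSA buffer, pH 7.4, for 18-24 h at 37° C. Transfer was read with streptavidin SPA beads, and IC50 was taken as 50% inhibition of transfer.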

In experiment [2] the test system is apo B secretion in HepG2 cells. Briefly: Secretion of apo B in the HepG2 human cell line (sandwich-ELISA). Type of experiment: cell-based. To be noted: 24 hours incubation, culture supernatant, read-out: IC50, concentration that produces a 50% inhibition of apo B secretion in the HepG2 cells. As to the method: Analysis of the Secretion of apo B in the HepG2 Human Cell Line:
The activity of a compound according to the invention can be evaluated by measuring the inhibition of apo B secretion in HepG2 cells.
The HepG2 cells (ECACC—No. 85011430) are used as model in the study of the in vitro hepatic secretion of lipoproteins (Dixon J. and Ginsberg H., J., Lipid. Res., 1993, 34, 167-179).
The HepG2 cells are cultured in Dulbecco's modified Eagle's medium comprising 10% foetal calf serum (DMEM and FBS—Gibco) in 96-well plates under an atmosphere of 5% carbon dioxide for 24 hours (about 70% confluence).
The test compounds are dissolved at a concentration of 2 or 10 mM in dimethyl sulfoxide (DMSO). Serial dilutions (1:3.16) are made in DMSO and are added (1:200—Robot Multimek Beckman) to the growth medium (200 μL) and then finally incubated for 24 hours in the various wells containing the HepG2 cells.
The 24-hour culture supernatant diluted to 1:5 (phosphate-buffered saline:PBS comprising 1% bovine serum albumin) is tested according to a sandwich-ELISA method specific for human apo B.
The results are expressed in terms of IC50, i.e. the concentration that produces a 50% inhibition of apo B secretion in the HepG2 cells.

Regarding `COc1ccc(CC(=O)N2CCC(Oc3cccc(NC(=O)c4cccc(C)c4-c4ccc(OC(F)(F)F)cc4)c3)CC2)cc1` [Example 101, N-[3-[[1-[2-(4-methoxyphenyl)acetyl]-4-piperidinyl]oxy]phenyl]-6-methyl-4′-(trifluoromethoxy)[1,1′-biphenyl]-2-carboxamide], the IC50 in experiment [1] stood at 160 nM; in experiment [2], 92.6 nM.

For `Cc1cccc(C(=O)Nc2cccc(OC3CCN(C(=O)Nc4ccc5c(c4)OCO5)CC3)c2)c1-c1ccc(OC(F)(F)F)cc1` [Example 56, N-1,3-benzodioxol-5-yl-4-[3-[[[6-methyl-4′-(trifluoromethoxy)[1,1′-biphenyl]-2-yl]-carbonyl]amino]phenoxy]-1-piperidine-carboxamide], the figures for the IC50 in experiment [1] and in experiment [2] were 146 nM and 37.6 nM, respectively.

Turning to `COC(=O)c1ccc(NC(=O)N2CCC(Oc3cccc(NC(=O)c4cccc(C)c4-c4ccc(OC(F)(F)F)cc4)c3)CC2)cc1` [Example 55, methyl 4-[[[4-[3-[[[6-methyl-4′-(trifluoro-methoxy)[1,1′-biphenyl]-2-yl]carbonyl]-amino]phenoxy]-1-piperidinyl]carbonyl]-amino]benzoate], the IC50 in experiment [1] was found to be 208 nM; in experiment [2] it was 46.6 nM.

Consider `CCOC(=O)c1ccc(NC(=O)N2CCC(Oc3cccc(NC(=O)c4cccc(C)c4-c4ccc(OC(F)(F)F)cc4)c3)CC2)cc1` [Example 27, ethyl 4-[[[4-[3-[[[6-methyl-4′-(trifluorometh-oxy)[1,1′-biphenyl]-2-yl]carbonyl]amino]-phenoxy]-1-piperidinyl]carbonyl]amino]-benzoate], for which, in experiment [1], the IC50 turned out to be 295 nM.

On to `COC(=O)[C@@H](NC(=O)N1CCC(Oc2cccc(NC(=O)c3cccc(C)c3-c3ccc(OC(F)(F)F)cc3)c2)CC1)C(C)C` [Example 49, methyl N-[[4-[3-[[[6-methyl-4′-(trifluoro-methoxy)[1,1′-biphenyl]-2-yl]carbonyl]-amino]phenoxy]-1-piperidinyl]carbonyl]-L-valinate], for which the IC50 in experiment [1] is 551 nM.

Take `COc1ccc(C(=O)N2CCC(Oc3cccc(NC(=O)c4ccccc4-c4ccc(OC(F)(F)F)cc4)c3)CC2)cc1` [Example 138, N-[3-[[1-(4-methoxybenzoyl)-4-piperidin-yl]oxy]phenyl]-4′-(trifluoromethoxy)[1,1′-biphenyl]-2-carboxamide]: the IC50 in experiment [1] came to 221 nM.

For the molecule `Cc1ccc(NC(=O)N2CCC(Oc3cccc(NC(=O)c4cccc(C)c4-c4ccc(OC(F)(F)F)cc4)c3)CC2)cc1` [Example 29, N-(4-methylphenyl)-4-(3-[[[6-methyl-4′-(trifluoromethoxy)[1,1′-biphenyl]-2-yl]-carbonyl]amino]phenoxy]-1-piperidine-carboxamide], the IC50 in experiment [1] stood at 268 nM.

For `Cc1cccc(C(=O)Nc2cccc(OC3CCN(C(=O)NC(C)(C)C)CC3)c2)c1-c1ccc(OC(F)(F)F)cc1` [Example 28, N-(1,1-dimethylethyl)-4-[3-[[[6-methyl-4′-(trifluoromethoxy)[1,1′-biphenyl]-2-yl]-carbonyl]amino]phenoxy]-1-piperidine-carboxamide], in experiment [1], the IC50 turned out to be 232 nM.

`Cc1ccccc1NC(=O)N1CCC(Oc2cccc(NC(=O)c3cccc(C)c3-c3ccc(OC(F)(F)F)cc3)c2)CC1` [Example 62, N-(2-methylphenyl)-4-[3-[[[6-methyl-4′-(trifluoromethoxy)[1,1′-biphenyl]-2-yl]-carbonyl]amino]phenoxy]-1-piperidine-carboxamide]: the IC50 in experiment [1] was determined as 119 nM.

In the case of `Cc1cccc(CN2CCC(Oc3cccc(NC(=O)c4cccc(C)c4-c4ccc(OC(F)(F)F)cc4)c3)CC2)n1` [Example 83, 6-methyl-N-[3-[[1-[(6-methyl-2-pyridinyl)-methyl]-4-piperidinyl]oxy]phenyl]-4′-(trifluoromethoxy)[1,1′-biphenyl]-2-carboxamide], in experiment [1], the IC50 was 633 nM.
